In ChEMBL document CHEMBL2429756, “Synthesis, docking, and in vitro studies of some substituted bischalcones on acid and alkaline phosphatases” (Med Chem Res, 2013):
pKi: −log10 of the molar value.

What was measured:
[1] = Competitive inhibition of goat liver alkaline phosphatase assessed as residual activity using p-nitrophenyl phosphate as substrate by Lineweaver-Burk plot analysis; set-up: species or system Capra hircus
[2] = species: Capra hircus; assay: Inhibition of goat liver alkaline phosphatase assessed as residual activity using p-nitrophenyl phosphate as substrate at 1 mM after 30 mins relative to control
[3] = species: Capra hircus; assay: Inhibition of goat liver acid phosphatase assessed as residual activity using p-nitrophenyl phosphate as substrate at 1 mM after 30 mins relative to control
[4] = Non-competitive inhibition of goat liver alkaline phosphatase assessed as residual activity using p-nitrophenyl phosphate as substrate by Lineweaver-Burk plot analysis; set-up: species or system Capra hircus

Row | pKi [1] | Activity [2] [%] | Activity [3] [%] | pKi [4] | SMILES
1 | 3.41 | 31.7 | 158 | – | COc1ccc(/C=C2\CCC/C(=C\c3ccc(OC)cc3)C2=O)cc1
2 | 3.25 | 43.5 | 127 | – | O=C1/C(=C/c2ccc(Br)cc2)CCC/C1=C\c1ccc(Br)cc1
3 | – | 46 | 149 | 3.07 | Cc1ccc(/C=C2\CCC/C(=C\c3ccc(C)cc3)C2=O)cc1
4 | 3.17 | 46.2 | 129 | – | O=C1/C(=C/c2ccc(Cl)cc2)CCC/C1=C\c1ccc(Cl)cc1
5 | 2.96 | 57.8 | 140 | – | O=C1/C(=C/c2ccc(F)cc2)CCC/C1=C\c1ccc(F)cc1

The next lines start with the compound.

Row | SMILES | pKi [1] | Activity [2] [%] | Activity [3] [%] | pKi [4]
6 | O=C1/C(=C/c2ccc([N+](=O)[O-])cc2)CCC/C1=C\c1ccc([N+](=O)[O-])cc1 | 3.60 | 26 | 133 | –
7 | c1ccc([C@H]2CN3CCSC3=N2)cc1 [LEVAMISOLE] | 2.40 | 88 | – | –
8 | O=C1/C(=C/c2ccccc2)CCC/C1=C\c1ccccc1 [2,6-DIBENZYLIDENECYCLOHEXANONE] | 3.33 | 41.2 | 121 | –
9 | CN(C)c1ccc(/C=C2\CCC/C(=C\c3ccc(N(C)C)cc3)C2=O)cc1 | 3.33 | 40.2 | 113 | –
10 | O=C1/C(=C/C=C/c2ccccc2)CCC/C1=C\C=C\c1ccccc1 | – | 30.8 | 129 | 3.36
